# Results from patent US11214594B2, “Antimicrobial peptide having synergistic antibacterial effect with antibiotics on multidrug resistant bacteria, and use thereof” (priority 2016, dated 2022).
# Where a SMILES comes first, the peptide text is derived from it. [ ]: non-standard residue; d: D form.
# Assays:
# MDRAB 12035 [1] = test: MIC of antibiotic during combined treatment with antimicrobial peptide; assay type: cell-based, Acinetobacter baumannii
# In short: (§1)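 Strains in MH medium at 2×10^6 CFU/ml were mixed with peptide diluted stepwise (2:1) from its MIC, then antibiotic dilutions in MH medium were added to give the antibiotic MIC. The reversed set-up, peptide titrated against fixed antibiotic, gave the peptide MIC.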
# MDREC 1238 = assay type: cell-based, Escherichia coli
# In short: (§2)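 Broth microdilution in MH medium: strains diluted to 2×10^6 CFU were mixed with equal volumes of twofold serial peptide dilutions in MH medium. MIC was taken as the lowest peptide concentration preventing bacterial growth.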
# MDRAB 12036 = assay type: cell-based, Acinetobacter baumannii
# In short: as §2
# A. baumannii = test: MIC of antimicrobial peptide during combined treatment with antibiotic; assay type: cell-based, Acinetobacter baumannii
# In short: as §1
# MDRAB 12035 [2] = test: as above; assay type: cell-based, Acinetobacter baumannii
# In short: as §1
# MDREC 1229 = test: MIC of antibiotic during combined treatment with antimicrobial peptide; assay type: cell-based, Escherichia coli
# In short: as §1
# S. epidermidis = test: microbe, parasite or virus in culture; assay type: cell-based, Staphylococcus epidermidis
# In short: as §2
# [3] = peptide treatment concentration 16 μg/ml
# [4] = peptide treatment concentration 32 μg/ml
# [5] = peptide treatment concentration 64 μg/ml
# [6] = erythromycin 4 μg/ml (Conc./MIC 1/8)
# [7] = erythromycin 8 μg/ml (Conc./MIC 1/4)
# [8] = erythromycin 16 μg/ml (Conc./MIC 1/2)
# [9] = erythromycin 32 μg/ml (Conc./MIC 1)
# [10] = vancomycin 512 μg/ml (Conc./MIC 1/2)
# [11] = vancomycin 1024 μg/ml (Conc./MIC 1)
# [12] = peptide treatment concentration 1 μg/ml
# [13] = peptide treatment concentration 2 μg/ml
# [14] = peptide treatment concentration 4 μg/ml
# [15] = peptide treatment concentration 6 μg/ml
# [16] = peptide treatment concentration 8 μg/ml
smiles,measurement,setting,value
"CC[C@H](C)[C@H](NC(=O)[C@H](CCCCN)NC(=O)[C@H](Cc1c[nH]c2ccccc12)NC(=O)[C@@H](N)CCCNC(=N)N)C(=O)N[C@@H](Cc1ccccc1)C(=O)N[C@@H](CCCCN)C(=O)N[C@@H](CCCCN)C(=O)N[C@H](C(=O)N[C@H](CCCCN)C(=O)N[C@@H](CCCCN)C(=O)N[C@@H](CC(C)C)C(=O)N[C@@H](CC(C)C)C(=O)N[C@@H](Cc1c[nH]cn1)C(=O)N[C@@H](CCC(=O)O)C(=O)N[C@@H](C)C(=O)N[C@@H](CCCCN)C(=O)N[C@@H](CCCCN)C(=O)N[C@@H](Cc1c[nH]c2ccccc12)C(N)=O)[C@@H](C)CC [PapMA-20, RWK IFK KIk KLL HEA KKW-NH2] (H-RWKIFKKI[dK]KLLHEAKKW-NH2; N-terminus assumed)",Linezolid MIC during combined treatment with peptide,MDRAB 12035 [1]; [3],0 µg/mL
same,Vancomycin MIC during combined treatment with peptide,MDRAB 12035 [1]; [3],0 µg/mL
same,Erythromycin MIC during combined treatment with peptide,MDRAB 12035 [1]; [4],0 µg/mL
same,Linezolid MIC during combined treatment with peptide,MDRAB 12035 [1]; [4],0 µg/mL
same,Vancomycin MIC during combined treatment with peptide,MDRAB 12035 [1]; [4],0 µg/mL
same,Erythromycin MIC during combined treatment with peptide,MDRAB 12035 [1]; [5],0 µg/mL
same,Linezolid MIC during combined treatment with peptide,MDRAB 12035 [1]; [5],0 µg/mL
same,Vancomycin MIC during combined treatment with peptide,MDRAB 12035 [1]; [5],0 µg/mL
same,Minimal inhibitory concentration MIC,MDREC 1238,32 µg/mL
same,Minimal inhibitory concentration MIC,MDRAB 12036,16 µg/mL
same,Peptide MIC during treatment with antibiotic,A. baumannii; [6],4 µg/mL
same,Peptide MIC during treatment with antibiotic,A. baumannii; [7],4 µg/mL
same,Peptide MIC during treatment with antibiotic,A. baumannii; [8],2 µg/mL
same,Peptide MIC during treatment with antibiotic,A. baumannii; [9],0 µg/mL
same,Peptide MIC during treatment with antibiotic,A. baumannii; linezolid 32 μg/ml (Conc./MIC 1/8),4 µg/mL
same,Peptide MIC during treatment with antibiotic,A. baumannii; linezolid 64 μg/ml (Conc./MIC 1/4),2 µg/mL
same,Peptide MIC during treatment with antibiotic,A. baumannii; linezolid […] (Conc./MIC 1),0 µg/mL
same,Peptide MIC during treatment with antibiotic,A. baumannii; linezolid […] (Conc./MIC 1/2),1 µg/mL
same,Peptide MIC during treatment with antibiotic,A. baumannii; [10],0.25 µg/mL
same,Peptide MIC during treatment with antibiotic,A. baumannii; [11],0 µg/mL
same,Peptide MIC during treatment with antibiotic,A. baumannii; vancomycin […] (Conc./MIC 1/4),0.5 µg/mL
same,Peptide MIC during treatment with antibiotic,A. baumannii; vancomycin […] (Conc./MIC 1/8),4 µg/mL
same,Peptide MIC during treatment with erythromycin,MDRAB 12035 [2]; [6],4 µg/mL
same,Peptide MIC during treatment with erythromycin,MDRAB 12035 [2]; [7],4 µg/mL
same,Peptide MIC during treatment with erythromycin,MDRAB 12035 [2]; [8],2 µg/mL
same,Peptide MIC during treatment with erythromycin,MDRAB 12035 [2]; [9],0 µg/mL
same,Peptide MIC during treatment with linezolid,MDRAB 12035 [2]; linezolid 64 μg/ml (Conc./MIC 1/8),4 µg/mL
same,Peptide MIC during treatment with linezolid,MDRAB 12035 [2]; linezolid 512 μg/ml (Conc./MIC 1),0 µg/mL
same,Peptide MIC during treatment with linezolid,MDRAB 12035 [2]; linezolid […] (Conc./MIC 1/2),1 µg/mL
same,Peptide MIC during treatment with linezolid,MDRAB 12035 [2]; linezolid […] (Conc./MIC 1/4),2 µg/mL
same,Peptide MIC during treatment with vancomycin,MDRAB 12035 [2]; [10],2 µg/mL
same,Peptide MIC during treatment with vancomycin,MDRAB 12035 [2]; [11],1 µg/mL
same,Peptide MIC during treatment with vancomycin,MDRAB 12035 [2]; vancomycin […] (Conc./MIC 1/4),2 µg/mL
same,Peptide MIC during treatment with vancomycin,MDRAB 12035 [2]; vancomycin […] (Conc./MIC 1/8),4 µg/mL
same,"Antibiotic MIC, Erythromycin",MDREC 1229; [12],128 µg/mL
same,"Antibiotic MIC, Linezolid",MDREC 1229; [12],>128 µg/mL
same,"Antibiotic MIC, Vancomycin",MDREC 1229; [12],>128 µg/mL
same,"Antibiotic MIC, Erythromycin",MDREC 1229; [13],32 µg/mL
same,"Antibiotic MIC, Linezolid",MDREC 1229; [13],64 µg/mL
same,"Antibiotic MIC, Vancomycin",MDREC 1229; [13],>128 µg/mL
same,"Antibiotic MIC, Erythromycin",MDREC 1229; [14],8 µg/mL
same,"Antibiotic MIC, Linezolid",MDREC 1229; [14],16 µg/mL
same,"Antibiotic MIC, Vancomycin",MDREC 1229; [14],64 µg/mL
same,"Antibiotic MIC, Erythromycin",MDREC 1229; [15],2 µg/mL
same,"Antibiotic MIC, Linezolid",MDREC 1229; [15],16 µg/mL
same,"Antibiotic MIC, Vancomycin",MDREC 1229; [15],16 µg/mL
same,"Antibiotic MIC, Erythromycin",MDREC 1229; [16],1 µg/mL
same,"Antibiotic MIC, Linezolid",MDREC 1229; [16],8 µg/mL
same,"Antibiotic MIC, Vancomycin",MDREC 1229; [16],8 µg/mL
same,"Antibiotic MIC, Erythromycin",MDREC 1229; [3],0 µg/mL
same,"Antibiotic MIC, Linezolid",MDREC 1229; [3],0 µg/mL
same,"Antibiotic MIC, Vancomycin",MDREC 1229; [3],0 µg/mL
same,"Antibiotic MIC, Erythromycin",MDREC 1229; [4],0 µg/mL
same,"Antibiotic MIC, Linezolid",MDREC 1229; [4],0 µg/mL
same,"Antibiotic MIC, Vancomycin",MDREC 1229; [4],0 µg/mL
same,"Antibiotic MIC, Erythromycin",MDREC 1229; [5],0 µg/mL
same,"Antibiotic MIC, Linezolid",MDREC 1229; [5],0 µg/mL
same,"Antibiotic MIC, Vancomycin",MDREC 1229; [5],0 µg/mL
same,Minimal inhibitory concentration MIC,S. epidermidis,>128 µg/mL
